A word on the IC50: it is the concentration at which inhibition is half-maximal.

The test deals with Huntingtin (Homo sapiens, UniProt P42858). In words: Inhibition of Huntingtin protein (unknown origin) incubated for overnight in presence of MW1/MAB2166 monoclonal antibody by ELISA-based MSD electrochemiluminescence assay. In general terms: An ELISA detects its analyte on a solid surface through an enzyme-linked reagent.
Sequence of Huntingtin (P42858 whole entry): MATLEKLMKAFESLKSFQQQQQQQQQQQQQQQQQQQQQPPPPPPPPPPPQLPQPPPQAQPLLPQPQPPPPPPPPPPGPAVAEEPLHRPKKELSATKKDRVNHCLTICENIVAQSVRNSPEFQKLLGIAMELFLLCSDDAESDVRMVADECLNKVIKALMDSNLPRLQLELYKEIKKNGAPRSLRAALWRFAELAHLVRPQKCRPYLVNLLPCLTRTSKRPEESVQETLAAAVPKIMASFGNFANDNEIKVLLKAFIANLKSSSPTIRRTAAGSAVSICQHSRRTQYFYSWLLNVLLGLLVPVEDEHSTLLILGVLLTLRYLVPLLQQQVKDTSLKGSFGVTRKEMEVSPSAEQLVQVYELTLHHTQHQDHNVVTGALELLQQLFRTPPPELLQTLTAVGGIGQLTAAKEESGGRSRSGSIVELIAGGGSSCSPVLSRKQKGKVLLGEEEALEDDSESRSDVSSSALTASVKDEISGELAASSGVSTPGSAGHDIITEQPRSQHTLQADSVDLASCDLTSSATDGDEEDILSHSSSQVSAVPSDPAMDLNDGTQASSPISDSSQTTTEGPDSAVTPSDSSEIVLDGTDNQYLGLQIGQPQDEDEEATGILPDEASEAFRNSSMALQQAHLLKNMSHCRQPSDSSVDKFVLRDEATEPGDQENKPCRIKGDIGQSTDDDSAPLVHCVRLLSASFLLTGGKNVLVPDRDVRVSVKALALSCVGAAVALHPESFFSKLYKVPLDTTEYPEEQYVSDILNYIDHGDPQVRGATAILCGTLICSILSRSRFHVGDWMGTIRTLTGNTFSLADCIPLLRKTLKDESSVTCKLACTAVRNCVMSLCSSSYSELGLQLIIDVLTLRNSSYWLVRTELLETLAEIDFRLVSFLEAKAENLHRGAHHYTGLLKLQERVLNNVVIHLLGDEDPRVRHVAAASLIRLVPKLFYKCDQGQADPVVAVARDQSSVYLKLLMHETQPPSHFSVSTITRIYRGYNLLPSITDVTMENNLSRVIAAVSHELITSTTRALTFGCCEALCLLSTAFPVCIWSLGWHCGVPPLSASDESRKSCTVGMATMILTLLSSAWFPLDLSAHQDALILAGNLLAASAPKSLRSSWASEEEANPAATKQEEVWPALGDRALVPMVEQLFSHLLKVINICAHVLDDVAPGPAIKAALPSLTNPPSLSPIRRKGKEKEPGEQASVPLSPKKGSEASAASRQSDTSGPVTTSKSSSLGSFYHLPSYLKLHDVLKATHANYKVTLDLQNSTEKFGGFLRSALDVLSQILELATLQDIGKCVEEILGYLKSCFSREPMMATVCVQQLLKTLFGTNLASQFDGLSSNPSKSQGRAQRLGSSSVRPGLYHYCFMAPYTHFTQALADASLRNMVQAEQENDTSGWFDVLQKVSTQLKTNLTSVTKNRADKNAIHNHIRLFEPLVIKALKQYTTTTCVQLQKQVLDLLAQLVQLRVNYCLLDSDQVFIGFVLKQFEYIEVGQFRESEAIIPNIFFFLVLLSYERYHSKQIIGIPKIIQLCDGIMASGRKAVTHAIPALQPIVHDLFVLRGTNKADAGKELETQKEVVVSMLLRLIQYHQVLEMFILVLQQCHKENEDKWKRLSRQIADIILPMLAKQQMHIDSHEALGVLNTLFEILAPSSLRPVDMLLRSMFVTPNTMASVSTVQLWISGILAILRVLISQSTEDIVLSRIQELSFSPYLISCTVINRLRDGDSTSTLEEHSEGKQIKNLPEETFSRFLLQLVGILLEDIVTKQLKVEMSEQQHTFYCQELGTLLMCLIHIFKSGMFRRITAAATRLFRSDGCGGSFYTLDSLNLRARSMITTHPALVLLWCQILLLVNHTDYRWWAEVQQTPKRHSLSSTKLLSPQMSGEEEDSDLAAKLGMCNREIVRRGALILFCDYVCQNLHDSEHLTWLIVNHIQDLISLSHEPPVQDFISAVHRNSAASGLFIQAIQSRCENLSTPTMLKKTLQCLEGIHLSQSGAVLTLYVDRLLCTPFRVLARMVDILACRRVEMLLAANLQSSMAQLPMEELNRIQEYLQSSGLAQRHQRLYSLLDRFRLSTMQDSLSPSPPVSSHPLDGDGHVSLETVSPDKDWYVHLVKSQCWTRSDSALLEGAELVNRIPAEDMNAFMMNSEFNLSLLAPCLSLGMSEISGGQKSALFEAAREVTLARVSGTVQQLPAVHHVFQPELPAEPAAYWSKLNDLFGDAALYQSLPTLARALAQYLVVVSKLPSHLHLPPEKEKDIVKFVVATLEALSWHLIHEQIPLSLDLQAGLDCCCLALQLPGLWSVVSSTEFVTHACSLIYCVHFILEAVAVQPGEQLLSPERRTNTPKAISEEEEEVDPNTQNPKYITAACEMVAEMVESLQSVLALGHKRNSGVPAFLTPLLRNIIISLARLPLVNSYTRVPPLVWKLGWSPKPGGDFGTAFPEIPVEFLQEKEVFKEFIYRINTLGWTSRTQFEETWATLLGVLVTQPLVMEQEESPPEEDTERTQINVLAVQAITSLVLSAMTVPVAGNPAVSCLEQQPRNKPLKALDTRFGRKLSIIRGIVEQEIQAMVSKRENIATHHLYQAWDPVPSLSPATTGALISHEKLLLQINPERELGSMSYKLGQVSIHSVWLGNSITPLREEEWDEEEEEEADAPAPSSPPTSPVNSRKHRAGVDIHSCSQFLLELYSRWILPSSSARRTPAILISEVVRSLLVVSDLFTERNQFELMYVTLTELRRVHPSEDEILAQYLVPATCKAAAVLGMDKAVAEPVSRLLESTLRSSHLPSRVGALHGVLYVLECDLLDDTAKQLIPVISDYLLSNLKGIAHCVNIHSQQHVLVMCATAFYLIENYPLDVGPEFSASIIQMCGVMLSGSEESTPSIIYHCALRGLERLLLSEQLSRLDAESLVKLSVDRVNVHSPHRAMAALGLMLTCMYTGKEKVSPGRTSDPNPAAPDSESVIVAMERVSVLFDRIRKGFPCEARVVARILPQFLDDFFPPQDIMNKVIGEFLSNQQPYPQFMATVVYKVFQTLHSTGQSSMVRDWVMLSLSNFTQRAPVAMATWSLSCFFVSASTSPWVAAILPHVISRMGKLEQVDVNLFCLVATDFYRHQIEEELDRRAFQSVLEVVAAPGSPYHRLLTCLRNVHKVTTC
With `Cn1cc(-c2ccc(-c3cnc(NC4CC(C)(C)NC(C)(C)C4)nn3)c(O)c2)cn1`, the concentration for half-maximal inhibition (IC50) is at most 0.1 µM.

For the compound `CN(c1cnc(-c2ccc(-c3cn[nH]c3F)cc2O)nn1)C1CC(C)(C)NC(C)(C)C1`, the half-maximal inhibitory concentration (IC50) was at most 0.1 µM.

In the case of `CN(c1cnc(-c2ccc(-n3nccn3)cc2O)nn1)C1CC(C)(C)NC(C)(C)C1`, the 50% inhibitory concentration (IC50) was at most 0.1 µM.

Turning to `CN(c1ncc(-c2ccc(-c3ncco3)cc2O)nn1)C1CC(C)(C)NC(C)(C)C1`, the IC50 was at most 0.1 µM.

On to `CC1(C)CC(Nc2cnc(-c3ccc(-c4cn[nH]c4)cc3O)nn2)C(F)C(C)(C)N1` (stereo unspecified), for which the concentration for half-maximal inhibition (IC50) is at most 0.1 µM.

In the case of `CC(C)(C)NC1CCN(c2ncc(-c3ccc(-c4c[nH]nc4C#N)cc3O)nn2)C1` (stereo unspecified), the 50% inhibitory concentration (IC50) was at most 0.1 µM.

The record behind these values is ChEMBL document CHEMBL4715900, “Novel Substituted Monocyclic Heteroaryl Compounds for Treating Huntington's Disease” (ACS Med Chem Lett, 2021).
